Results from the NIST ThermoML archive (doi:10.1021/je6005168).
Numbers after ± are expanded uncertainties.

Assay: molar heat capacity at constant pressure
Details: 101.33 kPa, Crystal, Small sample (50 mg) DSC

Row | molar heat capacity at constant pressure (298.15 K) | molar heat capacity at constant pressure (303.15 K) | molar heat capacity at constant pressure (308.15 K) | molar heat capacity at constant pressure (313.15 K) | molar heat capacity at constant pressure (318.15 K) | molar heat capacity at constant pressure (323.15 K) | molar heat capacity at constant pressure (328.15 K) | molar heat capacity at constant pressure (333.15 K) | molar heat capacity at constant pressure (338.15 K) | molar heat capacity at constant pressure (343.15 K) | Structure (SMILES)
1 | 145 ± 2.9 J/K/mol | 145.5 ± 2.9 J/K/mol | 146.2 ± 2.9 J/K/mol | 147 ± 2.9 J/K/mol | 148 ± 3 J/K/mol | 148.4 ± 3 J/K/mol | 149.1 ± 3 J/K/mol | 150 ± 3 J/K/mol | 150.6 ± 3 J/K/mol | 151.3 ± 3 J/K/mol | Nc1c[nH]c(=O)[nH]c1=O [2,4(1H,3H)-pyrimidinedione, 5-amino-]
2 | 189 ± 3.8 J/K/mol | 191 ± 3.8 J/K/mol | 193.1 ± 3.9 J/K/mol | 195.2 ± 3.9 J/K/mol | 197.3 ± 3.9 J/K/mol | 199.5 ± 4 J/K/mol | 201.6 ± 4 J/K/mol | 204 ± 4.1 J/K/mol | 206 ± 4.1 J/K/mol | 208 ± 4.2 J/K/mol | Cn1c(N)cc(=O)n(C)c1=O [6-amino-1,3-dimethyluracil]
3 | 166.2 ± 3.3 J/K/mol | 167 ± 3.3 J/K/mol | 168 ± 3.4 J/K/mol | 168.5 ± 3.4 J/K/mol | 169.2 ± 3.4 J/K/mol | 170 ± 3.4 J/K/mol | 171 ± 3.4 J/K/mol | 171.4 ± 3.4 J/K/mol | 172.2 ± 3.4 J/K/mol | 173 ± 3.5 J/K/mol | Cn1c(N)cc(=O)[nH]c1=O [6-amino-1-methyluracil]
4 | 147 ± 2.9 J/K/mol | 147.6 ± 3 J/K/mol | 148.2 ± 3 J/K/mol | 149 ± 3 J/K/mol | 149.6 ± 3 J/K/mol | 150.3 ± 3 J/K/mol | 151 ± 3 J/K/mol | 151.6 ± 3 J/K/mol | 152.3 ± 3 J/K/mol | 153 ± 3.1 J/K/mol | Nc1cc(O)nc(O)n1 [6-aminouracil]
